These results are taken from US20140283583A1, “SYSTEM FOR PIPELINE DRYING AND FREEZING POINT SUPPRESSION” (WEATHERFORD/LAMB, INC., priority 2007, published 2014).

For data set [1] the following is noted: 50% w/w solution in water.
For a further data set, the system named is Mysidopsis bahia. As to conditions: 800 mg/L.
For data set [2] the following is noted: FIG. 1, compared with methanol and ethylene glycol.
In the next data set the test system is Menidia beryllina. The settings on record: 800 mg/L.

`O=C[O-].[K+]` [potassium formate]: the freezing point result in data set [1] is “around −60 °C”. For the same compound, the “larval survival and growth toxicity testing (normality tests)” value in the data set with Mysidopsis bahia and in the data set with Menidia beryllina was “passed the normality tests” each time. In addition, the methane hydrate suppression result in data set [2] was “between ethylene glycol and methanol”.
